row,Compound,melting point [°C]
1,"O=C(NCc1ccc(F)cc1)C1(CCCCN2CCN(c3ccc4c(Cl)cccc4n3)CC2)c2ccccc2-c2ccccc21 [Example 54, 9-{4-[4-(5-chloro-quinolin-2-yl)-piperazin-1-yl]-butyl}-9H-fluorene-9-carboxylic acid-4-fluoro-benzylamide]",140
2,"C[C@@H]1CN(c2nc3ccccc3o2)C[C@H](C)N1CCCCC1(C(=O)NCC(F)(F)F)c2ccccc2-c2ccccc21 [Example 46, 9-[4-(4-benzoxazol-2-yl-cis-2,6-dimethyl-piperazin-1-yl)-butyl]-9H-fluorene-9-carboxylic acid-(2,2,2-trifluoro-ethyl)-amide]",163 to 165
3,"O=C(NCc1ccc(F)cc1)C1(CCCCN2CCN(c3nc4ccccc4s3)CC2)c2ccccc2-c2ccccc21 [Example 59, 9-[4-(4-benzothiazol-2-yl-piperazin-1-yl)-butyl]-9H-fluorene-9-carboxylic acid-4-fluoro-benzylamide]",160
4,"O=C(NCC(F)(F)F)C1(CCCCN2CCN(c3cc(-c4ccccc4)c4ccccc4n3)CC2)c2ccccc2-c2ccccc21 [Example 25, 9-{4-[4-(4-phenyl-quinolin-2-yl)-piperazin-1-yl]-butyl}-9H-fluorene-9-carboxylic acid-(2,2,2-trifluoro-ethyl)-amide]",105
5,"CCn1c(N2CCN(CCCCC3(C(=O)NCc4ccc(F)cc4)c4ccccc4-c4ccccc43)CC2)nc2ccccc21 [Example 61, 9-{4-[4-(1-ethyl-1H-benzimidazol-2-yl)-piperazin-1-yl]-butyl}-9H-fluorene-9-carboxylic acid-4-fluoro-benzylamide]",166
6,"CCn1c(N2CCN(CCCCC3(C(=O)NCC(F)(F)F)c4ccccc4-c4ccccc43)CC2)nc2ccccc21 [Example 11, 9-{4-[4-(1-ethyl-1H-benzimidazol-2-yl)-piperazin-1-yl]-butyl}-9H-fluorene-9-carboxylic acid-(2,2,2-trifluoro-ethyl)-amide]",55
7,"O=C(NCC(F)(F)F)C1(CCCCN2CCN(c3nc4ccc(Cl)cc4s3)CC2)c2ccccc2-c2ccccc21 [Example 24, 9-{4-[4-(6-chloro-benzothiazol-2-yl)-piperazin-1-yl]-butyl}-9H-fluorene-9-carboxylic acid-(2,2,2-trifluoro-ethyl)-amide]",187
8,"O=C(NCc1ccc(F)cc1)C1(CCCCN2CCN(c3ccc4cccc(Cl)c4n3)CC2)c2ccccc2-c2ccccc21 [Example 55, 9-{4-[4-(8-chloro-quinolin-2-yl)-piperazin-1-yl]-butyl}-9H-fluorene-9-carboxylic acid-4-fluoro-benzylamide]",66
9,"C[C@@H]1CN(c2nc3ccccc3s2)C[C@H](C)N1CCCCC1(C(=O)NCC(F)(F)F)c2ccccc2-c2ccccc21 [Example 45, 9-[4-(4-benzothiazole-2-yl-cis-2,6-dimethyl-piperazin-1-yl)-butyl]-9H-fluorene-9-carboxylic acid-(2,2,2-trifluoro-ethyl)-amide]",163 to 165
10,"O=C(NCC(F)(F)F)C1(CCCCN2CCN(c3cnc4c(Cl)cccc4n3)CC2)c2ccccc2-c2ccccc21 [Example 23, 9-{4-[4-(5-chloro-quinoxalin-2-yl)-piperazin-1-yl]-butyl}-9H-fluorene-9-carboxylic acid-(2,2,2-trifluoro-ethyl)-amide]",74
11,"C[C@H]1CN(c2ccc3ccccc3n2)CCN1CCCCC1(C(=O)NCc2ccc(F)cc2)c2ccccc2-c2ccccc21 [Example 64, 9-{4-[(S)-2-methyl-4-quinolin-2-yl-piperazin-1-yl]-butyl}-9H-fluorene-9-carboxylic acid-4-fluoro-benzylamide]",124
12,"O=C(NCC(F)(F)F)C1(CCCCN2CCN(c3ccc4cccc(Cl)c4n3)CC2)c2ccccc2-c2ccccc21 [Example 29, 9-{4-[4-(8-chloro-quinolin-2-yl)-piperazin-1-yl]-butyl}-9H-fluorene-9-carboxylic acid-(2,2,2-trifluoro-ethyl)-amide]",121
13,"Cn1c(N2CCN(CCCCC3(C(=O)NCc4ccc(F)cc4)c4ccccc4-c4ccccc43)CC2)nc2ccccc21 [Example 60, 9-{4-[4-(1-methyl-1H-benzimidazol-2-yl)-piperazin-1-yl]-butyl}-9H-fluorene-9-carboxylic acid-4-fluoro-benzylamide]",55
14,"COc1cccc2c1nc(N1CCN(CCCCC3(C(=O)NCC(F)(F)F)c4ccccc4-c4ccccc43)CC1)n2C [Example 20, 9-{4-[4-(4-methoxy-1-methyl-1H-benzimidazol-2-yl)-piperazin-1-yl]-butyl}-9H-fluorene-9-carboxylic acid-(2,2,2-trifluoro-ethyl)-amide]",146
15,"O=C(NCC(F)(F)F)C1(CCCCN2CCN(c3ccc4cc(Cl)ccc4n3)CC2)c2ccccc2-c2ccccc21 [Example 28, 9-{4-[4-(6-chloro-quinolin-2-yl)-piperazin-1-yl]-butyl}-9H-fluorene-9-carboxylic acid-(2,2,2-trifluoro-ethyl)-amide]",151
16,"O=C(NCC(F)(F)F)C1(CCCCN2CCN(c3cnc4ccccc4n3)CC2)c2ccccc2-c2ccccc21 [Example 22, 9-[4-(4-quinoxalin-2-yl-piperazin-1-yl)-butyl]-9H-fluorene-9-carboxylic acid-(2,2,2-trifluoro-ethyl)-amide]",142 to 145
17,"COc1cccc2ccc(N3CCN(CCCCC4(C(=O)NCC(F)(F)F)c5ccccc5-c5ccccc54)CC3)nc12 [Example 36, 9-{4-[4-(8-methoxy-quinolin-2-yl)-piperazin-1-yl]-butyl}-9H-fluorene-9-carboxylic acid-(2,2,2-trifluoro-ethyl)-amide]",67

# Next, values leading:
row,melting point [°C],Compound
1,196 to 197,"O=C(NCC(F)(F)F)C1(CCCCN2CCN(c3nc4ccccc4o3)CC2)c2ccccc2Oc2ccccc21 [Example 101, 9-[4-(4-benzoxazol-2-yl-piperazin-1-yl)-butyl]-9H-xanthene-9-carboxylic acid-(2,2,2-trifluoro-ethyl)-amide]"
2,55 to 57,"O=C(NCCc1ccccc1)C1(CCCCN2CCN(c3ccc4ccccc4n3)CC2)c2ccccc2-c2ccccc21 [Example 92, 9-[4-(4-quinolin-2-yl-piperazin-1-yl)-butyl]-9H-fluorene-9-carboxylic acid-(phenethyl)-amide]"
3,110 to 112,"COC(=O)CCNC(=O)C1(CCCCN2CCN(c3ccc4ccccc4n3)CC2)c2ccccc2-c2ccccc21 [Example 94, 9-[4-(4-quinolin-2-yl-piperazin-1-yl)-butyl]-9H-fluorene-9-carboxylic acid-(2-methoxycarbonyl-ethyl)-amide]"
4,118,"COc1ccc(CNC(=O)C2(CCCCN3CCN(c4ccc5ccccc5n4)CC3)c3ccccc3-c3ccccc32)cc1OC [Example 83, 9-[4-(4-quinolin-2-yl-piperazin-1-yl)-butyl]-9H-fluorene-9-carboxylic acid-3,4-dimethoxy-benzylamide]"
5,157,"C[C@@H]1CN(c2nc3ccccc3s2)C[C@H](C)N1CCCCC1(C(=O)NCC(F)(F)F)c2ccccc2Oc2ccccc21 [Example 110, 9-[4-(4-benzothiazol-2-yl-cis-2,6-dimethyl-piperazin-1-yl)-butyl]-9H-xanthene-9-carboxylic acid-(2,2,2-trifluoro-ethyl)-amide]"
6,120,"Cn1c(N2CCN(CCCCC3(C(=O)NCC(F)(F)C(F)(F)F)c4ccccc4-c4ccccc43)CC2)nc2ccccc21 [Example 87, 9-{4-[4-(1-methyl-1H-benzimidazol-2-yl)-piperazin-1-yl]-butyl}-9H-fluorene-9-carboxylic acid-(2,2,3,3,3-pentafluoro-propyl)-amide]"
7,135 to 136,"COc1ccc(CNC(=O)C2(CCCCN3CCN(c4ccc5c(Cl)cccc5n4)CC3)c3ccccc3-c3ccccc32)cc1 [Example 73, 9-{4-[4-(5-chloro-quinolin-2-yl)-piperazin-1-yl]-butyl}-9H-fluorene-9-carboxylic acid-4-methoxy-benzylamide]"
8,58 to 62,"O=C(NCC(F)(F)F)C1(CCCCN2CCN(c3nc4ccccc4s3)CC2)c2ccccc2Oc2ccccc21 [Example 100, 9-[4-(4-benzothiazol-2-yl-piperazin-1-yl)-butyl]-9H-xanthene-9-carboxylic acid-(2,2,2-trifluoro-ethyl)-amide]"
9,153,"C[C@@H]1CN(c2nc3ccccc3o2)C[C@H](C)N1CCCCC1(C(=O)NCc2ccc(F)cc2)c2ccccc2-c2ccccc21 [Example 69, 9-[4-(4-benzoxazol-2-yl-cis-2,6-dimethyl-piperazin-1-yl)-butyl]-9H-fluorene-9-carboxylic acid-4-fluoro-benzylamide]"
10,45 to 53,"CCCCNC(=O)C1(CCCCN2CCN(c3ccc4ccccc4n3)CC2)c2ccccc2Oc2ccccc21 [Example 118, 9-[4-(4-quinolin-2-yl-piperazin-1-yl)-butyl]-9H-xanthene-9-carboxylic acid-Butylamide]"
11,127 to 129,"O=C(O)CNC(=O)C1(CCCCN2CCN(c3ccc4ccccc4n3)CC2)c2ccccc2-c2ccccc21 [Example 97, 9-[4-(4-quinolin-2-yl-piperazin-1-yl)-butyl]-9H-fluorene-9-carboxylic acid-(carboxy-methyl)-amide]"
12,141 to 143,"O=C(NCc1ccc(F)c(F)c1)C1(CCCCN2CCN(c3ccc4ccccc4n3)CC2)c2ccccc2-c2ccccc21 [Example 85, 9-[4-(4-quinolin-2-yl-piperazin-1-yl)-butyl]-9H-fluorene-9-carboxylic acid-3,4-difluoro-benzylamide]"
13,68,"O=C(NCC(F)(F)F)C1(CCCCN2CCN(c3ccc4cccc(Cl)c4n3)CC2)c2ccccc2Oc2ccccc21 [Example 106, 9-{4-[4-(8-chloro-quinolin-2-yl)-piperazin-1-yl]-butyl}-9H-xanthene-9-carboxylic acid-(2,2,2-trifluoro-ethyl)-amide]"
14,110,"Cn1c(N2CCN(CCCCC3(C(=O)NCC(F)(F)F)c4ccccc4Oc4ccccc43)CC2)nc2ccccc21 [Example 102, 9-{4-[4-(1-methyl-1H-benzimidazol-2-yl)-piperazin-1-yl]-butyl}-9H-xanthene-9-carboxylic acid-(2,2,2-trifluoro-ethyl)-amide]"
